Consider two molecules from patent US7112589B2, “Cysteine protease inhibitors with 2-cyano-4-amino-pyrimidine structure and cathepsin k inhibitory activity for the treatment of inflammations and other diseases” (Novartis AG, priority 2001, dated 2006).

In the assay the target is T1, recombinant human cathepsin K (Homo sapiens, UniProt P43235).
T1 sequence (P43235 115-329): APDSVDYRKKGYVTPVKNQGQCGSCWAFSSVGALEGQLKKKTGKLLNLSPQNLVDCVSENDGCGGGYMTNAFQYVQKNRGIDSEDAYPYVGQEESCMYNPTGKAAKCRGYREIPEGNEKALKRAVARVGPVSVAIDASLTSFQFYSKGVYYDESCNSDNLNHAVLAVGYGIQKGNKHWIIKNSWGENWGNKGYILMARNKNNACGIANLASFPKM
Briefly: in vitro inhibition of recombinant human cathepsin K (Z-Phe-Arg-AMCA fluorescence assay). It counts as biochemical. Conditions: recombinant human cathepsin K 0.16 nM, Z-Phe-Arg-AMCA substrate, pH 7.0, 30 min preincubation, 30 min incubation; read-out: IC50s for inhibition of human cathepsin K. As to the method:
The in vitro assay is carried out as follows:
The assay is performed in 96 well microtiter plates at ambient temperature using recombinant human cathepsin K. Inhibition of cathepsin K is assayed at a constant enzyme (0.16 nM) and substrate concentration ([…] Z-Phe-Arg-AMCA-Peptide Institute Inc. Osaka, Japan) in 100 mM sodium phosphate buffer, pH 7.0, containing 2 mM dithiothreitol, 20 mM Tween 80 and 1 mM EDTA. Cathepsin K is preincubated with the inhibitors for 30 min, and the reaction is initiated by the addition of substrate. After 30 min incubation the reaction is stopped by the addition of E-64 (2 mM), and fluorescence intensity is read on a multi-well plate reader at excitation and emission wavelengths of 360 and 460 nm, respectively.

`CN1CCN(Cc2ccc(C(=O)NCc3cnc(C#N)nc3NCC(C)(C)C)cc2)CC1` [Example I-22, N-[2-Cyano-4-(2,2-dimethyl-propylamino)-pyrimidin-5-ylmethyl]-4-(4-methyl-piperazin-1-ylmethyl)-benzamide]: the IC50 came to 3 nM.
In the case of `COCCN1CCC(Cc2ccc(C(=O)NCc3cnc(C#N)nc3NCC(C)(C)C)cc2)CC1` [Example I-23, N-[2-Cyano-4-(2,2-dimethyl-propylamino)-pyrimidin-5-ylmethyl]-4-[1-(2-methoxy-ethyl)-piperidin-4-ylmethyl]-benzamide], the IC50 is 1.5 nM.
